The source of these data is patent US20230411006A1, “METHOD FOR ASSESSING THE AREA UNDER THE CURVE OF AN IMMUNOSUPRESSANT AND ASSOCIATED METHOD AND SYSTEMS” (INSTITUT NATIONAL DE LA SANTE ET DE LA RECHERCHE MEDICALE, priority 2020, published 2023).

Read-outs that look alike come from different tables or passages of the source.

Data set [1] can be described thus: Mycophenolic acid interdose AUC0-12 h in ISBA requests (MPA plasma levels after MMF dose). It is filed as in vivo, human. Particulars: for AUC: human, plasma, oral, Median, read-out: Interdose AUC0_12 h. On the procedure: For patients and data, the dataset was sequentially refined by selecting the requests where MPA plasma levels were measured using HPLC, including at least 3 times of sampling approximately 20 min (10 to 30 min, C20), 60 min (30 to 100 min, C1) and 180 min (140 to 220 min, C3) after dose intake. Actually, the 20, 60, 180 min is the optimal sampling schedule for MMF. A filter was applied to select the requests with an interdose of 12 h. The other predictors available were the morning dose of MMF, the time elapsed between transplantation and MPA plasma sampling, the type of transplant, the associated immunosuppressant and patient age.

Data set [2] can be described thus: Tacrolimus concentrations and interdose AUC in ISBA requests of renal transplant patients. The settings on record: human, in vivo, oral; for concentration at 3 h: read-out: Concentration C3 at 3 h; for concentration at 1 h: read-out: Concentration C1 at 1 h; for C0: read-out: Through level C0. The method, then: Tacrolimus requests from ISBA website were extracted and cleaned using the tidyverse framework. Patient with a renal transplantation and tacrolimus concentrations measured using HPLC methods were selected. The requests including at least 3 sample times at 0 minutes (min), 60 min and 180 min after dose intake were selected with a range of selection of 30 min to 100 min for the 60 min and 140 min to 220 min for the 180 min (the 0, 60, 180 min is the optimal sampling schedule for Prograf® and Advagraf® while the optimal sampling times requested for Envarsus® is 0, 8 and 12 h after dose intake and this later formulation was not included in the analysis).
The dataset was split into two datasets according to the tacrolimus interdose and two independent prediction functions were developed, one for twice a day formulations (TAD; Prograf®) and one for once a day formulations (OAD; Advagraf®).
The present study used supervised learning to predict the inter-dose AUC for which the reference value have been obtained by MAP-BE in the ISBA website based on 3 concentrations.
The tacrolimus concentrations were binned into 3 theoretical time classes (concentrations at trough (C0 sampled at t=0 min), at 1 h (C1 sampled between 30 and 100 min) and at 3 h (C3 sampled between 140 and 220 min), leading to 3 columns per patient.

For the molecule `COc1c(C)c2c(c(O)c1C/C=C(\C)CCC(=O)O)C(=O)OC2` [mycophenolic acid], the “Interdose AUC0_12 h” value stood at 163.62 mg·h/L in data set [1] (Maximum, TEST (N = 3219)); 181.39 mg·h/L in data set [1] (Maximum, TRAIN (N = 9658)); 3.19 mg·h/L in data set [1] (Minimum, TEST (N = 3219)); 1.12 mg·h/L in data set [1] (Minimum, TRAIN (N = 9658)). Also, the AUC in data set [1] (TEST (N = 3219)) is 39200 ng·h/mL; in data set [1] (TRAIN (N = 9658)), 39300 ng·h/mL.
As for `C=CC[C@@H]1/C=C(\C)C[C@H](C)C[C@H](OC)[C@H]2O[C@@](O)(C(=O)C(=O)N3CCCC[C@H]3C(=O)O[C@H](/C(C)=C/[C@@H]3CC[C@@H](O)[C@H](OC)C3)[C@H](C)[C@@H](O)CC1=O)[C@H](C)C[C@@H]2OC` [tacrolimus], the concentration at 3 h in data set [2] (Maximum, OAD, Test (n = 394)) was 17.9 ng/mL; in data set [2] (Maximum, OAD, Train (n = 1184)), 18.4 ng/mL; in data set [2] (Maximum, TAD, Test (n = 1236)), 16.9 ng/mL; in data set [2] (Maximum, TAD, Train (n = 3708)), 16.6 ng/mL; in data set [2] (Median, OAD, Test (n = 394)), 13 ng/mL; in data set [2] (Median, OAD, Train (n = 1184)) it was 13.9 ng/mL. For the same molecule, the concentration at 3 h in data set [2] (Median, TAD, Test (n = 1236)) was 12.8 ng/mL; in data set [2] (Median, TAD, Train (n = 3708)), 12.4 ng/mL; in data set [2] (Minimum, OAD, Test (n = 394)) it was 9.51 ng/mL; in data set [2] (Minimum, OAD, Train (n = 1184)), 9.8 ng/mL; in data set [2] (Minimum, TAD, Test (n = 1236)), 9.6 ng/mL; in data set [2] (Minimum, TAD, Train (n = 3708)), 9.3 ng/mL. The concentration at 1 h came out at 17.1 ng/mL in data set [2] (Maxmum, OAD, Test (n = 394)); 18.4 ng/mL in data set [2] (Maxmum, OAD, Train (n = 1184)); 21.7 ng/mL in data set [2] (Maxmum, TAD, Test (n = 1236)); 21.4 ng/mL in data set [2] (Maxmum, TAD, Train (n = 3708)); 12.3 ng/mL in data set [2] (Median, OAD, Test (n = 394)); 12.6 ng/mL in data set [2] (Median, OAD, Train (n = 1184)). Also, the concentration at 1 h in data set [2] (Median, TAD, Test (n = 1236)) was 15.4 ng/mL; in data set [2] (Median, TAD, Train (n = 3708)), 14.7 ng/mL; in data set [2] (Minimum, OAD, Test (n = 394)) it was 8.6 ng/mL; in data set [2] (Minimum, OAD, Train (n = 1184)), 9 ng/mL; in data set [2] (Minimum, TAD, Test (n = 1236)), 10.5 ng/mL; in data set [2] (Minimum, TAD, Train (n = 3708)), 10.2 ng/mL. Moreover, the AUC was 222 ng·h/mL in data set [2] (Median, OAD, Test (n = 394), read-out: Interdose AuC); 236 ng·h/mL in data set [2] (Median, OAD, Train (n = 1184), read-out: Interdose AuC); 130 ng·h/mL in data set [2] (Median, TAD, Test (n = 1236), read-out: Interdose AuC); 128 ng·h/mL in data set [2] (Median, TAD, Train (n = 3708), read-out: Interdose AuC); 44 to 698 ng·h/mL in data set [2] (OAD, cleaned ISBA datasets, read-out: interdose AUCs range); 22 to 380 ng·h/mL in data set [2] (TAD, cleaned ISBA datasets, read-out: interdose AUCs range). Further, the C0 was 12.3 ng/mL in data set [2] (Median, OAD, Test (n = 394)); 12.6 ng/mL in data set [2] (Median, OAD, Train (n = 1184)); 15.4 ng/mL in data set [2] (Median, TAD, Test (n = 1236)); 14.7 ng/mL in data set [2] (Median, TAD, Train (n = 3708)).
